Where “and” joins values, the source holds several entries; their conditions need not be identical. Equal entries are not always repeated. Inconclusive results and toxic doses are left out.

In the assay the test system is BDF1 mice, P388 leukemia ip, median survival T/C. In words: NCI In Vivo Anticancer Drug Screen. Data for tumor model P388 Leukemia (intraperitoneal) in B6D2F1 (BDF1) mice. Particulars: endpoint: median survival time, higher = longer survival. Put shortly: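 In tumour-bearing mice, survival after compound treatment is set against the vehicle group and given as a quotient.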

Where [1] appears, read: dose: 6.25 mg/kg/injection, schedule: Q01DX009 (ip), vehicle: saline.
The mark [2] stands for this setting: dose: 50.0 mg/kg/injection, schedule: Q01DX009 (ip), vehicle: saline with Tween-80.
Setting [3] is: dose: 100.0 mg/kg/injection, schedule: Q01DX009 (ip), vehicle: saline with Tween-80.
The mark [4] stands for this setting: dose: 200.0 mg/kg/injection, schedule: Q01DX009 (ip), vehicle: saline with Tween-80.
[5] abbreviates: dose: 50.0 mg/kg/injection, schedule: Q01DX009 (ip), vehicle: saline.
[6] abbreviates: dose: 100.0 mg/kg/injection, schedule: Q01DX009 (ip), vehicle: saline.
Where [7] appears, read: dose: 100.0 mg/kg/injection, schedule: Q04DX003 (ip), vehicle: saline.
[8] abbreviates: dose: 200.0 mg/kg/injection, schedule: Q01DX009 (ip), vehicle: saline.
The mark [9] stands for this setting: dose: 200.0 mg/kg/injection, schedule: Q04DX003 (ip), vehicle: saline.
Setting [10] is: dose: 400.0 mg/kg/injection, schedule: Q01DX009 (ip), vehicle: saline.
Where [11] appears, read: dose: 400.0 mg/kg/injection, schedule: Q04DX003 (ip), vehicle: saline.

Consider `COc1ccc([I+]c2ccccc2)cc1`, for which the T/C was 87 % of control (dose: 1.56 mg/kg/injection, schedule: Q01DX009 (ip), vehicle: saline); 104 % of control (dose: 3.13 mg/kg/injection, schedule: Q01DX009 (ip), vehicle: saline); 112 % of control and 120 % of control under setting [1]; 105 % of control (dose: 12.5 mg/kg/injection, schedule: Q04DX003 (ip), vehicle: saline sonified); 110 % of control (dose: 25.0 mg/kg/injection, schedule: Q04DX003 (ip), vehicle: saline sonified).

For the compound `Cc1c(NS(=O)(=O)c2ccccc2)c(C)c(NS(=O)(=O)c2ccccc2)c(C)c1NS(=O)(=O)c1ccccc1`, the T/C is, setting by setting: under setting [2], 88 % of control; under setting [3], 91 % of control; under setting [4], 88 % of control.

With `CC(=O)Oc1cc(OC(C)=O)c2c(ccc3ccccc32)c1`, the T/C (dose: 100.0 mg/kg/injection, schedule: Q04DX003 (ip), vehicle: saline with Tween-80) is 93 % of control; the T/C (dose: 200.0 mg/kg/injection, schedule: Q04DX003 (ip), vehicle: saline with Tween-80) was 97 % of control; the T/C (dose: 400.0 mg/kg/injection, schedule: Q04DX003 (ip), vehicle: saline with Tween-80) was 93 % of control.

Consider `COc1ccc(C(C#N)CC(=O)c2ccc(OC)c(OCc3ccccc3)c2)cc1OC` (configuration not stated), for which the T/C reads like this: under setting [1], 90 % of control; (dose: 12.5 mg/kg/injection, schedule: Q01DX009 (ip), vehicle: saline) 95 % of control; (dose: 25.0 mg/kg/injection, schedule: Q01DX009 (ip), vehicle: saline) 91 % of control; (dose: 25.0 mg/kg/injection, schedule: Q04DX003 (ip), vehicle: saline) 114 % of control; under setting [5], 99 % of control; (dose: 50.0 mg/kg/injection, schedule: Q04DX003 (ip), vehicle: saline) 96 % of control. For the same compound, the T/C by setting is: under setting [6], 90 % of control; under setting [7], 96 % of control; under setting [8], 86 % of control; under setting [9], 107 % of control; under setting [10], 95 % of control; under setting [11], 100 % of control.

Turning to `Cc1ccc(NC(=O)NCC2(C)CC(NC(=O)Nc3ccc(C)cc3)CC(C)(C)C2)cc1` (configuration not stated), the T/C is 100 % of control (dose: 12.5 mg/kg/injection, schedule: Q01DX009 (ip), vehicle: Klucel (hydroxypropylcellulose) (HPC)); 100 % of control (dose: 25.0 mg/kg/injection, schedule: Q01DX009 (ip), vehicle: Klucel (hydroxypropylcellulose) (HPC)); 100 % of control (dose: 50.0 mg/kg/injection, schedule: Q01DX009 (ip), vehicle: Klucel (hydroxypropylcellulose) (HPC)); 90 % of control (dose: 75.0 mg/kg/injection, schedule: Q01DX009 (ip), vehicle: Klucel (hydroxypropylcellulose) (HPC)); 90 % of control (dose: 115.0 mg/kg/injection, schedule: Q01DX009 (ip), vehicle: Klucel (hydroxypropylcellulose) (HPC)); 90 % of control (dose: 170.0 mg/kg/injection, schedule: Q01DX009 (ip), vehicle: Klucel (hydroxypropylcellulose) (HPC)).

With `O=C1C=CN(C2OC(CO)C(O)C2O)C(=O)C1` (configuration not stated), the T/C was 103 % of control (dose: 22.0 mg/kg/injection, schedule: Q01DX009 (ip), vehicle: saline); 107 % of control (dose: 33.0 mg/kg/injection, schedule: Q01DX009 (ip), vehicle: saline); 87 % of control and 101 % of control (2×) under setting [5]; 110 % of control (dose: 75.0 mg/kg/injection, schedule: Q01DX009 (ip), vehicle: saline); 87 % of control under setting [6]; 91 % of control under setting [8]. Moreover, under setting [10], the T/C was 100 % of control.

`Cc1cc(O)c(C(c2ccccc2)c2c(O)cc(C)[nH]c2=O)c(=O)[nH]1`: the T/C by setting is: under setting [2], 94 % of control; under setting [3], 86 % of control.

For `O=C1OC(C(O)CO)C(O)=C1O` (configuration not stated), the T/C (dose: 0.01 mg/kg/injection, schedule: Q01DX009 (ip), vehicle: saline) was 105 % of control and 109 % of control; the T/C (dose: 0.03 mg/kg/injection, schedule: Q01DX009 (ip), vehicle: saline) was 91 % of control and 100 % of control and 118 % of control; the T/C (dose: 0.06 mg/kg/injection, schedule: Q01DX009 (ip), vehicle: saline) is 97 % of control and 100 % of control and 113 % of control; the T/C (dose: 0.24 mg/kg/injection, schedule: Q01DX009 (ip), vehicle: saline) is 102 % of control; the T/C (dose: 0.25 mg/kg/injection, schedule: Q01DX009 (ip), vehicle: saline) was 90 % of control and 110 % of control; the T/C (dose: 0.5 mg/kg/injection, schedule: Q01DX009 (ip), vehicle: saline) was 95 % of control and 105 % of control. Moreover, the T/C (dose: 1.0 mg/kg/injection, schedule: Q01DX001 (ip), vehicle: saline) was 100 % of control; the T/C (dose: 1.0 mg/kg/injection, schedule: Q01DX009 (ip), vehicle: saline) is 90 % of control and 95 % of control; the T/C (dose: 2.0 mg/kg/injection, schedule: Q01DX001 (ip), vehicle: saline) is 100 % of control; the T/C (dose: 2.0 mg/kg/injection, schedule: Q01DX009 (ip), vehicle: saline) was 95 % of control; the T/C (dose: 4.0 mg/kg/injection, schedule: Q01DX001 (ip), vehicle: saline) is 105 % of control; the T/C (dose: 4.0 mg/kg/injection, schedule: Q01DX009 (ip), vehicle: saline) is 90 % of control. Further, the T/C is 100 % of control (dose: 8.0 mg/kg/injection, schedule: Q01DX009 (ip), vehicle: saline); 105 % of control (dose: 16.0 mg/kg/injection, schedule: Q01DX001 (ip), vehicle: saline); 100 % of control (dose: 16.0 mg/kg/injection, schedule: Q01DX009 (ip), vehicle: saline); 100 % of control (dose: 32.0 mg/kg/injection, schedule: Q01DX001 (ip), vehicle: saline); 90 % of control (dose: 32.0 mg/kg/injection, schedule: Q01DX009 (ip), vehicle: saline); 95 % of control (dose: 64.0 mg/kg/injection, schedule: Q01DX001 (ip), vehicle: saline). The T/C is 100 % of control under setting [6]; 95 % of control under setting [7]; 105 % of control under setting [8]; 95 % of control under setting [9]; 95 % of control under setting [11].

For `CC1(C)N=C(N)N=C(N)N1c1ccc(CCc2ccc(S(=O)(=O)F)cc2)c(Cl)c1`, the T/C by setting is: (dose: 33.0 mg/kg/injection, schedule: Q04DX003 (ip), vehicle: saline sonified) 122 % of control; under setting [3], 159 % of control.

As for `CCOC(=O)CC(C)C(Br)(C(=O)OCC)C(=O)OCC` (configuration not stated), the T/C runs as follows: (dose: 25.0 mg/kg/injection, schedule: Q01DX009 (ip), vehicle: water) 110 % of control; (dose: 25.0 mg/kg/injection, schedule: Q04DX003 (ip), vehicle: water) 108 % of control; (dose: 50.0 mg/kg/injection, schedule: Q01DX009 (ip), vehicle: water) 121 % of control; (dose: 50.0 mg/kg/injection, schedule: Q04DX003 (ip), vehicle: water) 110 % of control; (dose: 100.0 mg/kg/injection, schedule: Q01DX009 (ip), vehicle: water) 114 % of control; (dose: 100.0 mg/kg/injection, schedule: Q04DX003 (ip), vehicle: water) 117 % of control. Besides, where the note is “dose: 200.0 mg/kg/injection, schedule: Q04DX003 (ip), vehicle: water”, the T/C was 106 % of control.

Turning to `CS(=O)(=O)CC(O)(c1ccccc1)c1cccs1` (configuration not stated), the T/C is 99 % of control under setting [2], 100 % of control under setting [3] and 100 % of control under setting [4].

Turning to `O=c1c2ccccc2[nH]c2c([N+](=O)[O-])ccc(Oc3cccc(C(F)(F)F)c3)c12`, the T/C is 90 % of control (dose: 100.0 mg/kg/injection, schedule: Q04DX002 (ip), vehicle: saline with Tween-80); 102 % of control (dose: 200.0 mg/kg/injection, schedule: Q04DX002 (ip), vehicle: saline with Tween-80); 92 % of control (dose: 400.0 mg/kg/injection, schedule: Q04DX002 (ip), vehicle: saline with Tween-80).

As for `O=C1Nc2c(Cl)cc(Cl)cc2C12Nc1ccccc1S2` (configuration not stated), the T/C by setting is: under setting [2], 112 % of control; under setting [3], 96 % of control; under setting [4], 107 % of control.

Consider `COC(=O)CCC#CC#CCCC(=O)OC`, for which the T/C was 109 % of control (dose: 100.0 mg/kg/injection, schedule: Q04DX003 (ip), vehicle: Klucel (hydroxypropylcellulose) (HPC)); 104 % of control (dose: 200.0 mg/kg/injection, schedule: Q04DX003 (ip), vehicle: Klucel (hydroxypropylcellulose) (HPC)); 109 % of control (dose: 400.0 mg/kg/injection, schedule: Q04DX003 (ip), vehicle: Klucel (hydroxypropylcellulose) (HPC)).
